Assay results reported in publication PMC5007552, “The hVps34‐SGK3 pathway alleviates sustained PI3K/Akt inhibition by stimulating mTORC1 and tumour growth” (The EMBO Journal, 2016).
Values joined by “and” are separate entries in the source; they are usually repeats but may differ in a detail not shown here. Identical values can stand only once.

System: ZR-75-1 cells
Assay: NanoString human kinome mRNA quantification
Type: cell-based
From the text: Human mRNAs were hybridised to NanoString human kinome and control code sets, then subjected to quantification using NanoString software. […] To permit data compaction, and simple kinome‐wide comparisons, the fold changes are log2 transformed. […] Cell pellets were resuspended at a concentration of ~6,500 cells/μl in RLT buffer (Qiagen). […] For total copy numbers, triplicate normalised count values were averaged, and to calculate fold induction, means were divided by triplicate mean values from matched DMSO controls. P‐values were calculated using unpaired t‐test (GraphPad Prism software) by employing treated and control count data for each kinase mRNA.

`NC1(c2ccc(-c3nc4ccn5c(=O)[nH]nc5c4cc3-c3ccccc3)cc2)CCC1` [MK-2206] was tested, and the “rank of SGK3 mRNA expression in the 536-member kinase panel” value (1 μM, day 5, ZR-75-1, DMSO control 230th) was 94, the “AAK1 Average normalised counts” value (AAK1 mRNA, average of 3 replicates) was 782.49 and the “AAK1 Normalised counts” value (AAK1 mRNA, single replicates) was 765.01 and 806.95 and 775.51. For the same compound, the “AATK Average normalised counts” value (AATK mRNA, average of 3 replicates) was 168.267, the “AATK Normalised counts” value (AATK mRNA, single replicates) was 168.73 and 152.79 and 183.28 and the “ABL1 Average normalised counts” value (ABL1 mRNA, average of 3 replicates) was 597.787. The “ABL1 Normalised counts” value (ABL1 mRNA, single replicates) was 594.12 and 597.59 and 601.65, the “ABL2 Average normalised counts” value (ABL2 mRNA, average of 3 replicates) was 904.847 and the “ABL2 Normalised counts” value (ABL2 mRNA, single replicates) was 861.36 and 926.84 and 926.34. For the same compound, the “ACVR1B Normalised counts” value (ACVR1B mRNA, single replicates) was 285.69, the “ACVR1C Average normalised counts” value (ACVR1C mRNA, average of 3 replicates) was 2.92 and the “ACVR1C Normalised counts” value (ACVR1C mRNA, single replicates) was 2.39 and 2.5 and 3.87. For the same compound, the “ACVR1 Normalised counts” value (ACVR1 mRNA, single replicates) was 276.15 and 273.79, the “ACVR2A Average normalised counts” value (ACVR2A mRNA, average of 3 replicates) was 137.863 and the “ACVR2A Normalised counts” value (ACVR2A mRNA, single replicates) was 146 and 131.94 and 135.65. The “ACVR2B Average normalised counts” value (ACVR2B mRNA, average of 3 replicates) was 119.837, the “ACVR2B Normalised counts” value (ACVR2B mRNA, single replicates) was 122.37 and 110.22 and 126.92 and the “ACVRL1 Average normalised counts” value (ACVRL1 mRNA, average of 3 replicates) was 5.713. For the same compound, the “ACVRL1 Normalised counts” value (ACVRL1 mRNA, single replicates) was 4.2 and 5.1 and 7.84, the “ADCK1 Average normalised counts” value (ADCK1 mRNA, average of 3 replicates) was 103.98 and the “ADCK1 Normalised counts” value (ADCK1 mRNA, single replicates) was 96.01 and 112.83 and 103.1. For the same compound, the “ADCK2 Average normalised counts” value (ADCK2 mRNA, average of 3 replicates) was 571.397, the “ADCK2 Normalised counts” value (ADCK2 mRNA, single replicates) was 535.04 and 567.18 and 611.97 and the “ADCK3 Average normalised counts” value (ADCK3 mRNA, average of 3 replicates) was 173.12. The “ADCK3 Normalised counts” value (ADCK3 mRNA, single replicates) was 181.45 and 164.95 and 172.96, the “ADCK4 Average normalised counts” value (ADCK4 mRNA, average of 3 replicates) was 488.637 and the “ADCK4 Normalised counts” value (ADCK4 mRNA, single replicates) was 486.86 and 483.78 and 495.27. The “ADCK5 Average normalised counts” value (ADCK5 mRNA, average of 3 replicates) was 272.407, the “ADCK5 Normalised counts” value (ADCK5 mRNA, single replicates) was 276.89 and 275.28 and the “ADRBK1 Average normalised counts” value (ADRBK1 mRNA, average of 3 replicates) was 4377.38. For the same compound, the “ADRBK1 Normalised counts” value (ADRBK1 mRNA, single replicates) was 4312.7 and 4473.91 and 4345.53, the “ADRBK2 Average normalised counts” value (ADRBK2 mRNA, average of 3 replicates) was 361.227 and the “ADRBK2 Normalised counts” value (ADRBK2 mRNA, single replicates) was 361.43 and 359.55 and 362.7. The “AKT1 Average normalised counts” value (AKT1 mRNA, average of 3 replicates) was 6880.64, the “AKT1 Normalised counts” value (AKT1 mRNA, single replicates) was 6785.99 and 6852.52 and 7003.4 and the “AKT2 Average normalised counts” value (AKT2 mRNA, average of 3 replicates) was 2329.47. The “AKT2 Normalised counts” value (AKT2 mRNA, single replicates) was 2337.52 and 2309.87 and 2341.02, the “AKT3 Average normalised counts” value (AKT3 mRNA, average of 3 replicates) was 1.89 and the “AKT3 Normalised counts” value (AKT3 mRNA, single replicates) was 2.39 and 1 and 2.28. For the same compound, the “ALK Average normalised counts” value (ALK mRNA, average of 3 replicates) was 1, the “ALK Normalised counts” value (ALK mRNA, single replicates) was 1 and the “ALPK2 Average normalised counts” value (ALPK2 mRNA, average of 3 replicates) was 16.6133. The “ALPK2 Normalised counts” value (ALPK2 mRNA, single replicates) was 12.38 and 22.48 and 14.98, the “ALPK3 Average normalised counts” value (ALPK3 mRNA, average of 3 replicates) was 74.1967 and the “ALPK3 Normalised counts” value (ALPK3 mRNA, single replicates) was 85.1 and 68.52 and 68.97. The “AMHR2 Average normalised counts” value (AMHR2 mRNA, average of 3 replicates) was 1, the “AMHR2 Normalised counts” value (AMHR2 mRNA, single replicates) was 1 and the “ANKK1 Average normalised counts” value (ANKK1 mRNA, average of 3 replicates) was 2.167. The “ANKK1 Normalised counts” value (ANKK1 mRNA, single replicates) was 1 and 1.63 and 3.87, the “ARAF Average normalised counts” value (ARAF mRNA, average of 3 replicates) was 918.807 and the “ARAF Normalised counts” value (ARAF mRNA, single replicates) was 894.08 and 950.29 and 912.05. For the same compound, the “ATM Average normalised counts” value (ATM mRNA, average of 3 replicates) was 3.063, the “ATM Normalised counts” value (ATM mRNA, single replicates) was 5.11 and 1 and 3.08 and the “ATR Average normalised counts” value (ATR mRNA, average of 3 replicates) was 668.797. The “ATR Normalised counts” value (ATR mRNA, single replicates) was 672.29 and 661 and 673.1, the “AURKA Average normalised counts” value (AURKA mRNA, average of 3 replicates) was 948.07 and the “AURKA Normalised counts” value (AURKA mRNA, single replicates) was 903.17 and 1006.76 and 934.28. For the same compound, the “AURKB Average normalised counts” value (AURKB mRNA, average of 3 replicates) was 1225.21, the “AURKB Normalised counts” value (AURKB mRNA, single replicates) was 1232.22 and 1235.24 and 1208.17 and the “AURKC Average normalised counts” value (AURKC mRNA, average of 3 replicates) was 8.06. The “AURKC Normalised counts” value (AURKC mRNA, single replicates) was 7.84 and 7.71 and 8.63, the “AXL Average normalised counts” value (AXL mRNA, average of 3 replicates) was 5.22 and the “AXL Normalised counts” value (AXL mRNA, single replicates) was 3.29 and 7.71 and 4.66. The “BCKDK Average normalised counts” value (BCKDK mRNA, average of 3 replicates) was 3561.04, the “BCKDK Normalised counts” value (BCKDK mRNA, single replicates) was 3631.88 and 3513.08 and 3538.17 and the “BCR Average normalised counts” value (BCR mRNA, average of 3 replicates) was 1460.29. For the same compound, the “BCR Normalised counts” value (BCR mRNA, single replicates) was 1503.09 and 1393.35 and 1484.43, the “BLK Average normalised counts” value (BLK mRNA, average of 3 replicates) was 26.4533 and the “BLK Normalised counts” value (BLK mRNA, single replicates) was 26.93 and 30.3 and 22.13. The “BMP2K Average normalised counts” value (BMP2K mRNA, average of 3 replicates) was 406.717, the “BMP2K Normalised counts” value (BMP2K mRNA, single replicates) was 374.15 and 422.97 and 423.03 and the “BMPR1A Average normalised counts” value (BMPR1A mRNA, average of 3 replicates) was 4758.43. For the same compound, the “BMPR1A Normalised counts” value (BMPR1A mRNA, single replicates) was 4812.63 and 4697.18 and 4765.49, the “BMPR1B Average normalised counts” value (BMPR1B mRNA, average of 3 replicates) was 1516.82 and the “BMPR1B Normalised counts” value (BMPR1B mRNA, single replicates) was 1517.63 and 1515.84 and 1516.98. The “BMPR2 Average normalised counts” value (BMPR2 mRNA, average of 3 replicates) was 568.93, the “BMPR2 Normalised counts” value (BMPR2 mRNA, single replicates) was 569.58 and 587.16 and 550.05 and the “BMX Average normalised counts” value (BMX mRNA, average of 3 replicates) was 1. For the same compound, the “BMX Normalised counts” value (BMX mRNA, single replicates) was 1, the “BRAF Average normalised counts” value (BRAF mRNA, average of 3 replicates) was 627.873 and the “BRAF Normalised counts” value (BRAF mRNA, single replicates) was 623.21 and 634.94 and 625.47. The “BRD2 Average normalised counts” value (BRD2 mRNA, average of 3 replicates) was 2991.5, the “BRD2 Normalised counts” value (BRD2 mRNA, single replicates) was 2957.43 and 3009.21 and 3007.86 and the “BRD3 Average normalised counts” value (BRD3 mRNA, average of 3 replicates) was 697.943. The “BRD3 Normalised counts” value (BRD3 mRNA, single replicates) was 683.2 and 692.28 and 718.35 and the “BRD4 Average normalised counts” value (BRD4 mRNA, average of 3 replicates) was 2588.8.
